{
  "source": "patent US20060094013A1",
  "about": "“Salt-inducible kinases 2 and use thereof” (priority 2002, published 2006)",
  "key": {"Gal4-CREB(-bZIP)": {"system": "Gal4-CREB(-bZIP)", "experiment": "Gal4-CREB(-bZIP) luciferase reporter assay", "assay_type": "cell-based", "conditions": "50 ng/ml", "protocol": "(§1) In addition, CREB was introduced into the N-terminal side of the Gal4 protein of budding yeast (Gal4 DNA binding domain; Gal4DB). Using a plasmid wherein a reporter gene (fire fly luciferase) was introduced downstream of a promoter having a sequence consisting of 5 consecutive Gal4-binding sequences, the ability of DB to transcribe CREB without the medium of CRE was analyzed. In the case of a Gal-CREB (full-length) system, since it has a bZIP domain, the transcription was inhibited by SIK2 and TNFα (refer to FIG. 9B)."}, "Gal-CREB (full-length)": {"system": "Gal-CREB (full-length)", "experiment": "Gal4-CREB (full-length) luciferase reporter assay", "assay_type": "cell-based", "conditions": "50 ng/ml", "protocol": "as §1"}, "CRE": {"system": "CRE", "experiment": "CRE luciferase reporter assay in precursor fat cells 3T3-L1", "assay_type": "cell-based", "conditions": "50 ng/ml; SIK2 not highly expressed", "protocol": "For the purpose of detecting the CRE transcription-suppressing activity of SIK2, using Lipofectoamin 200 reagent (2 μl; manufactured by Invitrogen), 200 ng each of pTarget-SIK2 and pTarget-SIK2 (K49M), together with an expression vector (pTAL-CRE; 200 ng; manufactured by Clontech) in which a luciferase gene is located under the control of CRE, were introduced into precursor fat cells 3T3-L1. Moreover, mSIK2 (S587A) having a destroyed PKA phosphorylated portion, which was predicted to exist in mouse SIK2 domain 3 from the findings regarding rat SIK1, was introduced therein, using oligo DNA represented by SEQ ID NO: 16.\nIn the thus produced mSIK2 (S587A), serine at position 587 was substituted with alanine with respect to the full-length SIK2. For correction of introduction efficiency, a vector (pRL-SC40; 30 ng; manufactured by Promega) that allows luciferase derived from Renilla to express under an SV40 promoter was co-introduced therein. 16 hours later, the cells were stimulated with forskolin (50 μM) for 6 hours, so as to activate CRE. Thereafter, the cells were recovered, and the expression level of a reporter gene was analyzed using Dual Luciferase Assay kit (manufactured by Promega).\nThe corrected pTAL-CRE-derived activity was divided by the activity derived from pTAL, so as to obtain a specific activity derived from CRE. […]"}, "SIK2 gene": {"system": "SIK2 gene", "experiment": "SIK2 mRNA level after incubation with hormones (Northern blot)", "assay_type": "cell-based", "conditions": "used singly, 2 hours; insulin 1 μg/ml, cAMP 1 mM, dexamethasone 1 μM", "method": "The SIK2 gene was incubated with each of these hormones, and with the mixture consisting of the 3 types of hormones, for 2 hours. Thereafter, the mRNA level of SIK2 was measured. […] The measurement was carried out by the Northern blot analysis using cDNA probes."}, "mouse SIK2": {"target": "T1, mouse SIK2 (Mus musculus, UniProt Q8CFH6)", "T1 construct": "the full-length cDNA in the protein translation region of SIK2 was amplified by the RT-PCR method; made in house; host or cells: COS-7", "experiment": "Protein-phosphorylating activity of purified GST-mSIK2 (auto-phosphorylation and GST-Syntide 2 phosphorylation, 32P, SDS-PAGE)", "assay_type": "biochemical", "protocol": "The obtained GST-mSIK2 was mixed with 1 μl of GST-Syntide 2 (Lin et al., as describe above) and [^32P]-[…] (37 kBq; manufactured by ICN) in the presence of a 50 mM Tris-HCl buffer solution (pH 8.0) and 10 mM MnCl2 (20 μl in total). The mixture was allowed to react at 30° C. for 1 hour. The reaction was then terminated by adding 10 μl of an SDS-sample buffer and heating at 100° C. for 5 minutes. 10 μl of the reacted sample was separated using 15% SDS-PAGE, and the SDS-PAGE gel was then dried. The intake of ^32P was detected by exposing it to light for 30 minutes, using an X-ray film (MS-film; manufactured by Kodac). […] For comparison purpose, GST-rat SIK1 and GST-rat SIK1 (K56M) were subjected to the same experiment. Consequently, the same results were obtained.\nA GST-mSIK2 protein that was allowed to express in COS-7 cells and then purified was mixed with DMSO solutions containing 5% DMSO and 5% each of 1, 10, 100 nM staurosporine (Sigma) ina reaction system in the test tube used in Example 3. Thereafter, phosphorylating activity was detected by the SDS-PAGE method, so as to evaluate the inhibition of enzyme activity of mouse SIK2 by staurosporine. […] The auto-phosphorylating activity and GST-Syntide 2-phosphorylating activity of GST-mSIK2 were approximately 30% inhibited even by the single use of DMSO. […] It was inhibited by 1 nM staurosporine until the residual activity became approximately 20%. By 10 nM and 100 nM staurosporines, it was almost 100% inhibited."}, "SIK [1]": {"system": "SIK", "experiment": "Immunostaining of dexamethasone-induced SIK in 3T3-L1 cells with antibodies specific for the phosphorylation state", "assay_type": "cell-based", "protocol": "3T3-L1 cells were inoculated on 96-well plates, and the cells were cultured until they became confluent. The medium placed in such a plate was DMEM/10% FCS. The culture was carried out at 37° C. in 5% CO2. Thereafter, dexamethasone was added to each of the plates, thereby resulting in a concentration of dexamethasone of 1 μM, so that SIK was induced. After 1 hour had passed after the induction, an SIK inhibitor, staurosporine, was added to the plates, thereby resulting in concentrations of 10, 100, and 1,000 nM. Thereafter, the culture was further carried out for 1 hour. […] Subsequently, the cells were added to PBS containing 4% paraformaldehyde, and the mixture was then left at room temperature for 15 minutes, so that the cells were immobilized. Thereafter, the cells were washed with PBS 4 times, and they were then allowed to react with a blocking solution obtained by dissolving 1% skimmed milk in TBST (TBS containing 0.1% Tween 20). Subsequently, 100 μl of antiserum (500 times diluted) containing an antibody binding to SIK1 wherein serine at position 577 is phosphorylated, an antibody binding to SIK1 wherein threonine at position 182 and serine at position 186 are phosphorylated, an anti-SIK antibody, or an antibody binding to SIK1 wherein serine at position 577 is not phosphorylated, was added to the same above blocking solution. The obtained mixture was reacted overnight. After completion of the reaction overnight, an unreacted antibody portion was eliminated by washing with PBS 4 times. A solution obtained by 1,000 times diluting an HRP-labeled anti-rabbit IgG secondary antibody was added to a reaction solution obtained by dissolving 1% skimmed milk in TBS, and the mixture was then reacted at room temperature for 2 hours. Thereafter, the resultant product was washed with PBS 4 times. The antigen-antibody reaction was visualized using Konica Immuno Stain HRP reagent (manufactured by Konica)."}, "SIK [2]": {"target": "T2, SIK (Mus musculus, UniProt Q8CFH6)", "T2 construct": "the full-length cDNA in the protein translation region of SIK2 was amplified by the RT-PCR method; made in house; host or cells: COS-7", "experiment": "Phosphorylating activity of GST-SIK2 on Syntide 2 in the presence of a p300 peptide (method of Lin et al.)", "assay_type": "biochemical", "conditions": "GST-SIK2 expressed in COS-7 cells", "protocol": "It was studied whether or not a peptide p300 is phosphorylated by SIK when serine at position 89 in p300 is substituted with alanine (S89A). Moreover, it was also studied whether or not the peptide p300 [84-93 (S89A)] can inhibit the phosphorylating activity of SIK. When the activity of SIK2 was measured by the method of Lin et al., a DMSO solution containing 5% DMSO (dimethyl sulfoxide) and staurosporine was added. SIK2 was allowed to express in the form of a GST binding form in COS-7 cells, and it was then purified using GST-Mirospin kit from Amersham Pharmacia.\nThe left lane and the central lane show the results regarding a synthetic substrate (Syntide 2) phosphorylated by SIK."}, "[3]": {"system": "CRE-suppressing activity of SIK", "experiment": "CRE activity in cells with PKA and SIK, peptide bound to the GFPC carrier", "assay_type": "cell-based", "conditions": "peptide bound to C-terminus of GFP; PKA and SIK present", "text": "GFPC is a C-terminus binding-type green fluorescent protein. GFPC is used as a peptide carrier, wherein a peptide of interest binds to the C-terminus of GFP. […] The grey one is CRE activity obtained when both PKA and SIK exist."}, "[4]": {"conditions": "10, 100, 1,000 nM staurosporine"}},
  "data": [
    {"compound": "TNFα", "values": [
      {"measurement": "effect on transcription in Gal4-CREB(-bZIP) system", "setting": "Gal4-CREB(-bZIP)", "value": "suppressed"},
      {"measurement": "effect on transcription in Gal-CREB (full-length) system", "setting": "Gal-CREB (full-length)", "value": "inhibited"},
      {"measurement": "effect on activation of CRE due to PKA", "setting": "CRE", "value": "sufficiently suppressed the activation of CRE due to PKA"}
    ]},
    {"compound": "insulin", "values": [
      {"measurement": "effect on transcription of the SIK2 gene (mRNA level)", "setting": "SIK2 gene", "value": "promoted the transcription of the SIK2 gene"}
    ]},
    {"compound": "C[S+](C)[O-]", "note": "[DMSO, dimethyl sulfoxide]", "values": [
      {"measurement": "inhibition of auto-phosphorylating activity and GST-Syntide 2-phosphorylating activity of GST-mSIK2", "setting": "mouse SIK2; single use of DMSO (5% DMSO)", "value": "approximately 30%"}
    ]},
    {"compound": "CN[C@@H]1C[C@H]2O[C@@](C)([C@@H]1OC)n1c3ccccc3c3c4c(c5c6ccccc6n2c5c31)C(=O)NC4", "note": "[staurosporine]", "values": [
      {"measurement": "reaction of anti-phosphorylation Ser577 antibody with SIK", "setting": "SIK [1]; 10 nM staurosporine, 1 hour", "value": "significantly decreased"},
      {"measurement": "reaction of anti-phosphorylation Thr182-Ser186 antibody with SIK", "setting": "SIK [1]; 10 nM staurosporine, 1 hour", "value": "significantly decreased"},
      {"measurement": "reaction of SIK with anti-SIK1 antibody", "setting": "SIK [1]; [4]", "value": "not significantly decreased"},
      {"measurement": "reactivity of antibody binding to SIK1 wherein serine at position 577 is not phosphorylated", "setting": "SIK [1]; [4]", "value": "increased depending on the concentration of staurosporine"},
      {"measurement": "residual phosphorylating activity of SIK2", "setting": "mouse SIK2; 1 nM staurosporine in 5% DMSO solution", "value": "approximately 20%"},
      {"measurement": "inhibition at 0.01 µM", "setting": "mouse SIK2; 10 nM staurosporine", "value": "~100", "unit": "%"},
      {"measurement": "inhibition at 0.1 µM", "setting": "mouse SIK2; 100 nM staurosporine", "value": "~100", "unit": "%"},
      {"measurement": "concentration dependence of inhibition of phosphorylating activity of SIK2", "setting": "mouse SIK2; 1, 10, 100 nM", "value": "concentration-dependently inhibited"}
    ]},
    {"compound": "p300 [84-93 (S89A)]: peptide p300 residues 84-93 with serine at position 89 substituted with alanine; bound to GFPC carrier in the cell test (LLRSGASPNL)", "values": [
      {"measurement": "effect on enzyme activity of SIK (Syntide 2 phosphorylation)", "setting": "SIK [2]", "value": "inhibits the enzyme activity of SIK"},
      {"measurement": "effect on CRE-suppressing activity of SIK in cells", "setting": "[3]", "value": "inhibits the CRE-suppressing activity of SIK in cells"}
    ]}
  ]
}
